± gives the standard error.
Columns and labels:
621-102 (TSC2-deficient) [1] = assay: relative viability vs DMSO; higher = less cytotoxic; conditions: serum: 10% FBS, 72 h
621-103 (TSC2-rescued) = assay: as above; conditions: serum: 10% FBS, 72 h
621-102 (TSC2-deficient) [2] = assay: relative viability vs DMSO (fraction); higher = less cytotoxic; conditions: serum: 0.1% FBS, 72 h
UMB1949 (TSC2-deficient) = assay: as above; conditions: serum: 0.1% FBS, 72 h;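 also: renal angiomyolipoma cell lines screened in 384-well plates, viability normalized per plate to DMSO-treated cells, each plate carrying 50 nM rapamycin and 1 µM staurosporine controls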

SMILES | relative viability (621-102 (TSC2-deficient) [1]; 0.0001 µM) [%] | relative viability (621-102 (TSC2-deficient) [1]; 0.001 µM) [%] | relative viability (621-102 (TSC2-deficient) [1]; 0.01 µM) [%] | relative viability (621-102 (TSC2-deficient) [1]; 0.1 µM) [%] | relative viability (621-102 (TSC2-deficient) [1]; 1 µM) [%] | relative viability (621-102 (TSC2-deficient) [1]; 10 µM) [%] | relative viability (621-103 (TSC2-rescued); 0.0001 µM) [%] | relative viability (621-103 (TSC2-rescued); 0.001 µM) [%] | relative viability (621-103 (TSC2-rescued); 0.01 µM) [%] | relative viability (621-103 (TSC2-rescued); 0.1 µM) [%] | relative viability (621-103 (TSC2-rescued); 1 µM) [%] | relative viability (621-103 (TSC2-rescued); 10 µM) [%] | relative viability (621-102 (TSC2-deficient) [2]; 0.0128 nM) | relative viability (621-102 (TSC2-deficient) [2]; 0.064 nM) | relative viability (621-102 (TSC2-deficient) [2]; 0.32 nM) | relative viability (621-102 (TSC2-deficient) [2]; 1.6 nM) | relative viability (621-102 (TSC2-deficient) [2]; 8 nM) | relative viability (621-102 (TSC2-deficient) [2]; 40 nM) | relative viability (621-102 (TSC2-deficient) [2]; 200 nM) | relative viability (621-102 (TSC2-deficient) [2]; 1000 nM) | relative viability (621-102 (TSC2-deficient) [2]; 5000 nM) | relative viability (UMB1949 (TSC2-deficient); 0.0128 nM) | relative viability (UMB1949 (TSC2-deficient); 0.064 nM) | relative viability (UMB1949 (TSC2-deficient); 0.32 nM) | relative viability (UMB1949 (TSC2-deficient); 1.6 nM) | relative viability (UMB1949 (TSC2-deficient); 8 nM) | relative viability (UMB1949 (TSC2-deficient); 40 nM) | relative viability (UMB1949 (TSC2-deficient); 200 nM) | relative viability (UMB1949 (TSC2-deficient); 1000 nM) | relative viability (UMB1949 (TSC2-deficient); 5000 nM)
Nc1nc2[nH]cc(CCc3ccc(C(=O)N[C@@H](CCC(=O)O)C(=O)O)cc3)c2c(=O)[nH]1 [Pemetrexed disodium] | 107 ± 2.3 | 101 ± 4.2 | 107 ± 5.4 | 93.8 ± 4.3 | 94.1 ± 6.1 | 81.27 ± 0.71 | 102 ± 2.4 | 92.3 ± 6.5 | 102 ± 1.6 | 106 ± 1.4 | 104.4 ± 0.47 | 88.6 ± 7.4 | 1.25 | 1.15 | 1.17 | 1.17 | 1.09 | 0.126 | 0.0307 | 0.0251 | 0.0247 | 1.05 | 0.979 | 1.03 | 0.984 | 1.02 | 0.0167 | 0.00471 | 0.00243 | 0.000722
Cn1cc(-c2ccc3nnc(Sc4ccc5ncccc5c4)n3n2)cn1 [SGX-523] | 104 ± 1.6 | 94.8 ± 6.4 | 103 ± 2.1 | 98.3 ± 4.6 | 103.8 ± 0.28 | 97.5 ± 4.1 | 102 ± 1.5 | 96.42 ± 0.71 | 105 ± 2.4 | 102.4 ± 0.49 | 102.2 ± 0.92 | 97.9 ± 1.9 | 1.13 | 1.07 | 0.971 | 1.13 | 1.06 | 0.984 | 1.01 | 0.991 | 0.776 | 1.09 | 1.05 | 1.17 | 1.23 | 1.03 | 1.11 | 1.19 | 1.04 | 0.718
CO[C@H]1C[C@@H]2CC[C@@H](C)[C@@](O)(O2)C(=O)C(=O)N2CCCC[C@H]2C(=O)O[C@H]([C@H](C)C[C@@H]2CC[C@@H](OP(C)(C)=O)[C@H](OC)C2)CC(=O)[C@H](C)/C=C(\C)[C@@H](O)[C@@H](OC)C(=O)[C@H](C)C[C@H](C)/C=C/C=C/C=C/1C [Deforolimus(MK-8669)] | 47.2 ± 1.4 | 56.5 ± 2.7 | 56.6 ± 1.4 | 51.2 ± 2 | 47.9 ± 3 | 48.8 ± 5.1 | 64.9 ± 4.2 | 64.215 ± 0.057 | 68.4 ± 2.7 | 69.1 ± 1.9 | 64.44 ± 0.59 | 67.4 ± 1.6 | 0.609 | 0.552 | 0.523 | 0.466 | 0.466 | 0.493 | 0.373 | 0.281 | 0.284 | 0.988 | 0.964 | 0.973 | 0.932 | 0.899 | 0.802 | 0.693 | 0.381 | 0.459
NC(=O)Nc1cc(-c2cccc(F)c2)sc1C(=O)N[C@H]1CCCNC1 [AZD7762] | 102 ± 4.3 | 108 ± 1.8 | 88.76 ± 0.17 | 32.13 ± 0.32 | 17.1 ± 0.87 | 6.55 ± 0.31 | 99 ± 1.1 | 98.96 ± 0.94 | 98.3 ± 0.4 | 83.6 ± 0.97 | 22.27 ± 0.029 | 3.24 ± 0.41 | 0.981 | 0.92 | 0.935 | 0.731 | 0.244 | 0.0116 | 0.00396 | 0.000482 | 0.00108 | 0.976 | 0.981 | 1.07 | 1.08 | 0.341 | 0.00441 | 0.00215 | 0.000402 | 0.00128

Reference: the supplement of paper PMC8960247
